# According to ChEMBL document CHEMBL2417374, “Resistance by allostery: a novel perspective for eg5-targeted drug design” (J Med Chem, 2013):
# Activity calls are given as the source filed them. No cut-off for these calls is given here.
# Tested on: T1, Kinesin-like protein KIF11 (Homo sapiens), P52732 [D130V,A133D]
# T1 sequence (whole entry): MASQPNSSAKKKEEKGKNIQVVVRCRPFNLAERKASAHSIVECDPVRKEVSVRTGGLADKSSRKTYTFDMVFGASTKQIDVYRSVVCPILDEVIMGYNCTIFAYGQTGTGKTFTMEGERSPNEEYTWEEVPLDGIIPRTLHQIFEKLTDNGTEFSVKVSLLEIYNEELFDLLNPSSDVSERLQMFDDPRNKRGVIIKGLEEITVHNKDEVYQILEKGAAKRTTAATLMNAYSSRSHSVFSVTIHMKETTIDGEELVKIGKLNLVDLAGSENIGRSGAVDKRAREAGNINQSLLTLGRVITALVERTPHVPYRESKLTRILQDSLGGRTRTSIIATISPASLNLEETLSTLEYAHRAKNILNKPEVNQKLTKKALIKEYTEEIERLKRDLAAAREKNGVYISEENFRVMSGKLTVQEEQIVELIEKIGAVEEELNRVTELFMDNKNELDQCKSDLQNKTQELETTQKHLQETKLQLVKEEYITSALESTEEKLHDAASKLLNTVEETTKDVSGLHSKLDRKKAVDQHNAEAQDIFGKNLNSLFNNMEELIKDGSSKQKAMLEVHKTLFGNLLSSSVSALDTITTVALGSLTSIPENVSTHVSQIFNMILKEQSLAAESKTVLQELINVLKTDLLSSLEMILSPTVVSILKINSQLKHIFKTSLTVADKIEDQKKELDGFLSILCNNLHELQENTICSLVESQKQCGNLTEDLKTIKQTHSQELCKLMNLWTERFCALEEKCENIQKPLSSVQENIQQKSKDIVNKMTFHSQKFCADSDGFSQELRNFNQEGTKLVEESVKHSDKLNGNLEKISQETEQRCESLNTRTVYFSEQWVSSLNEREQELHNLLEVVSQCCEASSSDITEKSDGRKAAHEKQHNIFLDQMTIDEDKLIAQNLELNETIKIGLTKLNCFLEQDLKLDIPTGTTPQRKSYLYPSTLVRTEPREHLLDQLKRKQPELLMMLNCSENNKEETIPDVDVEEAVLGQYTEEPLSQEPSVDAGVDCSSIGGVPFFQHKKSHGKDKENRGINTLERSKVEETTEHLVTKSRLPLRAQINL
# Assay: Partial inhibition of MT-stimulated ATPase activity of Eg5 D130V/A133D (unknown origin)
smiles,measurement,value
Cc1ccc(C(=O)N(CCCN)[C@@H](c2oc3cc(Cl)ccc3c(=O)c2Cc2ccccc2)C(C)C)cc1,inhibition,Active
